This is an account of results in US12435087B2, “Modulators of DCN-1 and methods of use thereof” (Cellarity, Inc., priority 2023, dated 2025).

In this assay the target is DCN1 (DCUND1) protein PONY domain (Homo sapiens (Human), UniProt Q96GG9). The experiment in a line: TR-FRET assay (binding to DCN-1, displacement of FAM-labeled probe). The method, boiled down:
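Compounds read at 1, 5 and 24 h, 0.1% final DMSO, by TR-FRET between terbium-streptavidin on biotinylated DCN1 PONY domain (E. coli) and a FAM-tagged non-covalent inhibitor probe. Two setups used, 5 nM protein with 20 nM labelled probe, or 0.31 nM protein with 100 nM labelled plus 800 nM unlabelled probe; buffer had TritonX and 200 mM NaCl. % activity relative to high (with probe) and low (without probe) controls.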
On the technique in general: Time-resolved FRET reads energy transfer from a long-lived donor to a nearby acceptor.

[1] abbreviates: 24 hr after treatment with compound, read-out: TR FRET IC50 24 hr.
Setting [2] is: TR FRET IC50 1 hr (nM), 1 hr after treatment with compound.
The mark [3] stands for this setting: read-out: TR FRET IC50 1 hr, 1 hr after treatment with compound.

Like-named read-outs stand apart in the source and are kept apart here. Bounds are passed on as bounds.

What is called IC50 is the point on the concentration scale where inhibition reaches its midpoint.

Chain of DCN1 (DCUND1) protein PONY domain (Q96GG9 60-248): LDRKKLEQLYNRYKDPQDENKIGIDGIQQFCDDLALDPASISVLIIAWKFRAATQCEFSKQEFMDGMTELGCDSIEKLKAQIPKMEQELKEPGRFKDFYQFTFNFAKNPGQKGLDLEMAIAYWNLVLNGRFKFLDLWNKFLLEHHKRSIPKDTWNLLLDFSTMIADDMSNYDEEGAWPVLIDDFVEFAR

Turning to `C=C(CN1CCN(C2COC2)CC1)C(=O)NCc1cccc([C@@H]2c3cnn(-c4ccccc4)c3N(CC)C(=O)[C@H]2NC(=O)c2nccc(C(F)(F)F)n2)n1` [Compound I-333], the IC50 runs as follows: under setting [1], at most 200 nM; under setting [2], 200 to 1000 nM.
Regarding `C=C(CN1CC2(CCOC2)C1)C(=O)NCc1cccc([C@@H]2c3cnn(-c4ccccc4)c3N(CC)C(=O)[C@H]2NC(=O)c2cccc(C(F)(F)F)c2)c1` [Compound I-12], the IC50 was at most 200 nM under setting [1] and at most 200 nM under setting [3].
`CCN1C(=O)[C@@H](NC(=O)c2cccc(C(F)(F)F)c2)[C@H](c2cccc(CN(C)C/C=C/C(=O)OC(C)(C)C)c2)c2cnn(-c3ccccc3)c21` [Compound I-238, tert-butyl (E)-4-((3-((4R,5S)-7-ethyl-6-oxo-1-phenyl-5-(3-(trifluoromethyl)benzamido)-4,5,6,7-tetrahydro-1H-pyrazolo[3,4-b]pyridin-4-yl)benzyl)(methyl)amino)but-2-enoate]: the IC50 lay in the range of 1000 to 3000 nM under setting [1] and 1000 to 3000 nM under setting [2].
For `C/C=C/S(=O)(=O)Nc1cccc([C@H]2c3c(C)nn(-c4ccccc4)c3N(CC)C(=O)[C@@H]2NC(=O)c2cccc(C(F)(F)F)c2)c1` (racemic) [Compound I-131], the IC50 is at most 200 nM under setting [1] and 200 to 1000 nM under setting [2].
With `C=C(CN1CCOCC1)C(=O)NCc1cccc([C@H]2c3cnn(-c4ccccc4)c3N(CC)C(=O)[C@@H]2NC(=O)c2cccc(C(F)(F)F)c2)c1` [Compound I-93], the IC50 under setting [1] was in the range of 1000 to 3000 nM and the IC50 under setting [2] fell in the range of 1000 to 3000 nM.
Turning to `CCN1C(=O)[C@@H](NC(=O)c2nccc(C(F)(F)F)n2)[C@H](c2cccc(C(=O)N3CC(F)(F)C[C@H]3C#N)c2)c2cnn(-c3ccccc3)c21` (mixture of isomers) [Compound I-379, N-(rac-(4R,5S)-4-(3-((S)-2-cyano-4,4-difluoropyrrolidine-1-carbonyl)phenyl)-7-ethyl-6-oxo-1-phenyl-4,5,6,7-tetrahydro-1H-pyrazolo[3,4-b]pyridin-5-yl)-4-(trifluoromethyl)pyrimidine-2-carboxamide], the IC50 was in the range of 1000 to 3000 nM under setting [1] and 1000 to 3000 nM under setting [2].
For the compound `CCN1C(=O)[C@@H](NC(=O)c2nccc(C(F)(F)F)n2)[C@H](c2cccc(C(=O)N3C[C@@H](F)C[C@H]3C#N)c2)c2cnn(-c3ccccc3)c21` [Compound I-330], the IC50 under setting [1] lay within 1000 to 3000 nM and the half-inhibitory concentration (IC50) under setting [2] was 1000 to 3000 nM.
For `C=C(CC(=O)OC)C(=O)NCc1cccc([C@H]2c3cnn(-c4ccccc4)c3N(CC)C(=O)[C@@H]2NC(=O)c2cccc(C(F)(F)F)c2)c1` [Compound I-121], the IC50 runs as follows: under setting [1], 1000 to 3000 nM; under setting [2], 1000 to 3000 nM.
Turning to `C=C(C(=O)NCc1cccc([C@@H]2c3cnn(-c4ccccc4)c3N(CC)C(=O)[C@H]2NC(=O)c2nccc(C(F)(F)F)n2)c1)C(C)N1CC2CC(C1)O2` (stereo partly shown) [Compound I-324], the IC50 was at most 200 nM under setting [1] and at most 200 nM under setting [3].
As for `C/C=C(/C)S(=O)(=O)Nc1cccc([C@H]2c3c(C)nn(-c4ccccc4)c3N(CC)C(=O)[C@@H]2NC(=O)c2cccc(C(F)(F)F)c2)c1` (racemic) [Compound I-127], the IC50 under setting [1] was in the range of 1000 to 3000 nM and the IC50 under setting [2] is 1000 to 3000 nM.
Consider `C=C(CN1CCC12COC2)C(=O)NCc1cccc([C@@H]2c3cnn(-c4ccccc4)c3N(CC)C(=O)[C@H]2NC(=O)c2cccc(C(F)(F)F)c2)c1` [Compound I-332], for which the IC50 under setting [1] is at most 200 nM and the IC50 under setting [3] is at most 200 nM.
As to `C/C=C(\CN1CCC1)C(=O)NCc1cccc([C@@H]2c3cnn(-c4ccccc4)c3N(CC)C(=O)[C@H]2NC(=O)c2nccc(C(F)(F)F)n2)c1` [Compound I-314], the IC50 is at most 200 nM under setting [1] and 200 to 1000 nM under setting [2].
Turning to `C=C(C(=O)NCc1cccc([C@@H]2c3cnn(-c4ccccc4)c3N(CC)C(=O)[C@H]2NC(=O)c2cccc(C(F)F)c2)c1)C(C)N(C)C1COC1` (stereo partly shown) [Compound I-277], the IC50 runs as follows: under setting [1], at most 200 nM; under setting [3], at most 200 nM.
For the compound `C=C(C)S(=O)(=O)Nc1cccc([C@H]2c3c(C)nn(-c4ccccc4)c3N(CC)C(=O)[C@@H]2NC(=O)c2cccc(C(F)(F)F)c2)c1` (racemic) [Compound I-88], the IC50 fell in the range of 1000 to 3000 nM under setting [1] and 1000 to 3000 nM under setting [2].
For `C=C(CN(C)C1COC1)C(=O)N(C)Cc1cccc([C@@H]2c3cnn(-c4ccccc4)c3N(CC)C(=O)[C@H]2NC(=O)c2csc(C(F)(F)F)n2)c1` [Compound I-318], the IC50 by setting is: under setting [1], at most 200 nM; under setting [2], 200 to 1000 nM.
Take `C=C(CN1CC2CC(C1)O2)C(=O)N(C)Cc1cccc([C@@H]2c3cnn(-c4ccccc4)c3N(CC)C(=O)[C@H]2NC(=O)c2ccn(C3CC3)n2)c1` [Compound I-258]: under setting [2], the IC50 was 1000 to 3000 nM.
Take `C/C=C(/CN1CCN(C2COC2)CC1)C(=O)N(C)c1cccc([C@@H]2c3cnn(-c4ccccc4)c3N(CC)C(=O)[C@H]2NC(=O)c2csc(C(F)(F)F)n2)c1` [Compound I-369]: the IC50 under setting [1] lay in the range of 1000 to 3000 nM and the IC50 under setting [2] was in the range of 1000 to 3000 nM.
In the case of `CCN1C(=O)[C@@H](NC(=O)c2cccc(C(F)(F)F)c2)[C@H](c2cccc(CNC(=O)C(C)Cl)c2)c2cnn(-c3ccccc3)c21` (mixture of isomers) [Compound I-112], the IC50 is, setting by setting: under setting [1], 1000 to 3000 nM; under setting [2], 1000 to 3000 nM.
Take `C/C=C(/CN1CCOCC1)C(=O)NCc1cccc([C@@H]2c3cnn(-c4ccccc4)c3N(CC)C(=O)[C@H]2NC(=O)c2ccn(C3CC3)n2)c1` [Compound I-381]: the 50% inhibitory concentration (IC50) was 1000 to 3000 nM under setting [1] and 1000 to 3000 nM under setting [2].
Regarding `CCN1C(=O)[C@H](NC(=O)c2cccc(C(F)(F)F)c2)[C@@H](c2cccc(NC(=O)C34CC3C4)c2)c2c(C)nn(-c3ccccc3)c21` (mixture of isomers) [Compound I-80], the IC50 reads like this: under setting [1], 1000 to 3000 nM; under setting [2], 1000 to 3000 nM.
Consider `Cc1nn(-c2ccccc2)c2c1[C@H](c1cccc(NC(=O)C3=CCC3)c1)[C@@H](NC(=O)c1cccc(C(F)(F)F)c1)C(=O)N2CCO` (racemic) [Compound I-92, rac-N-((4R,5S)-4-(3-(cyclobut-1-ene-1-carboxamido)phenyl)-7-(2-hydroxyethyl)-3-methyl-6-oxo-1-phenyl-4,5,6,7-tetrahydro-1H-pyrazolo[3,4-b]pyridin-5-yl)-3-(trifluoromethyl)benzamide], for which the half-maximal inhibitory concentration (IC50) runs as follows: under setting [1], 1000 to 3000 nM; under setting [2], 1000 to 3000 nM.
`C=C(CN1CCOCC1)C(=O)NCc1cccc([C@@H]2c3cnn(-c4ccccc4)c3N(CC)C(=O)[C@H]2NC(=O)c2ccn(C(F)F)n2)c1` [Compound I-308]: the IC50 was at most 200 nM under setting [1] and 200 to 1000 nM under setting [2].
The corresponding values for `C=C(C(=O)NCc1cccc([C@@H]2c3cnn(-c4ccccc4)c3N(CC)C(=O)[C@H]2NC(=O)c2ccn(C(F)(F)F)n2)c1)C(C)N1CCC12COC2` (stereo partly shown) [Compound I-344] are at most 200 nM and 200 to 1000 nM.
For `C=C(C(=O)N(C)Cc1cccc([C@@H]2c3cnn(-c4ccccc4)c3N(CC)C(=O)[C@H]2NC(=O)c2ccn(C3CC3)n2)c1)C(C)N1CCC12COC2` (stereo partly shown) [Compound I-343], the IC50 lay in the range of 200 to 1000 nM under setting [1] and 1000 to 3000 nM under setting [2].
Take `CCN1C(=O)C(NC(=O)c2cccc(C(F)(F)F)c2)[C@@H](c2cccc(NC(=O)C(Cl)Cl)c2)c2c(C)nn(-c3ccccc3)c21` (stereo in doubt) [Compound I-42, N-((4S,5R)-4-(3-(2,2-dichloroacetamido)phenyl)-7-ethyl-3-methyl-6-oxo-1-phenyl-4,5,6,7-tetrahydro-1H-pyrazolo[3,4-b]pyridin-5-yl)-3-(trifluoromethyl)benzamide]: the IC50 under setting [1] lay within 1000 to 3000 nM and the IC50 under setting [3] is above 3000 nM.
